Assay results: PMC1891437, “Hexose-6-phosphate Dehydrogenase Modulates 11β-Hydroxysteroid Dehydrogenase Type 1-Dependent Metabolism of 7-keto- and 7β-hydroxy-neurosteroids” (PLoS ONE, 2007)

Key:
11β-HSD1 [1] = target: T1, 11β-HSD1 (Homo sapiens, UniProt P28845); test: 11β-HSD1 reductase activity (reduction of cortisone) in lysates of HEK-293 cells expressing recombinant enzyme, competition by 7-oxygenated neurosteroids; type: biochemical; settings: HEK-293 lysates; 200 nM [3H]-cortisone, 500 µM NADPH; mean±S.D., four experiments
T1 construct: expressed in transfected cells; host or cells: HEK-293 (transient, Ca2+-phosphate precipitation)
Method: (§1) HEK-293 cells were cultured in Dulbecco's Modified Eagle's Medium (DMEM) supplemented with 10% fetal calf serum (FCS), 50 units/ml penicillin, 50 µg/ml streptomycin and 2 mM glutamine. Cells were transfected with expression plasmids for FLAG-tagged 11β-HSD1 and myc-tagged H6PDH or pcDNA3.1 control using the Ca^2+-phosphate precipitation method. The epitope tags had no effect on enzymatic activities or expression levels of 11β-HSD1 and H6PDH [10], [49]. A total amount of 8 µg DNA was used per 10 cm culture dish or 2 µg DNA per well of a six-well culture plate.
(§2) The enzyme activity in intact cells was measured as described. Briefly, HEK-293 cells, grown in 10 cm culture dishes and transfected with FLAG-tagged 11β-HSD1 alone or co-transfected with myc-tagged H6PDH, were detached 24 h post-transfection and distributed in 96-well plates at a density of 30′000–40′000 cells per well. After 16 h, cells were incubated in serum- and steroid-free medium and the conversion of radiolabeled cortisone to cortisol (or the reverse activity) was determined upon incubation for 1 h at 37°C in a total volume of 50 µl containing 200 nM cortisone (or cortisol). The reaction was stopped by adding methanol containing 2 mM unlabeled cortisone and cortisol, followed by separation of steroids by TLC and scintillation counting. Measurements with freshly prepared cell lysates were carried out in the presence of [1,2,6,7-^3H]-cortisone and cofactor NADPH at final concentrations of 200 nM and 500 µM for the reductase reaction and with 50 nM [1,2,6,7-^3H]-cortisol and 500 µM cofactor NAD^+ for the dehydrogenase reaction, respectively, in the absence or presence of various concentrations of competing 7-oxygenated neurosteroid ligands. The concentration of dimethylsulfoxide or methanol from the solvent was 0.1% in all reactions and had no effect on enzyme activity. Data (mean±SD) were obtained from four independent experiments and were calculated using the Data Analysis Toolbox (Elsevier MDL, Allschwil, Switzerland).

11β-HSD1 [2] = target: T1, 11β-HSD1; test: 11β-HSD1 dehydrogenase activity (oxidation of cortisol) in lysates of HEK-293 cells expressing recombinant enzyme, competition by 7-oxygenated neurosteroids; type: biochemical; settings: HEK-293 lysates; 50 nM [3H]-cortisol, 500 µM cofactor NAD+; mean±S.D., four experiments
Method: as §1, §2

11β-HSD1 [3] = target: T1, 11β-HSD1; test: Steady state ratio of cortisone to cortisol in intact HEK-293 cells expressing 11β-HSD1; type: cell-based; settings: 16 h, 20 µM inhibitor
Method: as §1, §2

11β-HSD1/H6PDH = target: T2, 11β-HSD1/H6PDH (Homo sapiens, UniProt P28845); test: Steady state ratio of cortisone to cortisol in intact HEK-293 cells coexpressing 11β-HSD1 and H6PDH; type: cell-based; settings: 11β-HSD1/H6PDH cells, 16 h, 20 µM inhibitor, n = 4
T2 construct: expressed in transfected cells; host or cells: HEK-293 (transient co-transfection, Ca2+-phosphate precipitation)
Method: as §1
as §2, with “After 16 h, cells were incubated in serum- and steroid-free medium and the conversion of radiolabeled cortisone to cortisol (or the reverse activity) was determined upon incubation for 1 h at 37°C in a total volume of 50 µl containing 200 nM cortisone (or cortisol).” left out

11β-HSD1 [4] = target: T1, 11β-HSD1; test: 7-keto-steroid reductase and 7-hydroxy-steroid dehydrogenase activity in intact transfected HEK-293 cells (GC-MS); type: cell-based; settings: 1 µM inhibitor, intact HEK-293 cells
Method: as §1
HEK-293 cells were seeded in six-well plates at a density of 900′000 cells per well. After 24 h, cells were transfected with expression vector for 11β-HSD1 or co-transfected with vectors for 11β-HSD1 and H6PDH. An empty pcDNA3.1 plasmid was used in transfections lacking H6PDH to adjust total DNA amounts in all samples. The medium was replaced 18 h post-transfection by steroid-free medium followed by addition of 1 µM of the steroid substrate to be tested. […] After incubation for various time intervals, reactions were terminated by addition of an equal volume of dichloromethane, containing 500 ng medroxyprogesterone as an internal standard. Since radiolabeled C7-oxygenated metabolites were not commercially available, we applied GC-MS for detection. […]

[5] = 11β-HSD1 cells, 200 nM radiolabeled cortisone, n = 4

T1 sequence (P28845 whole entry): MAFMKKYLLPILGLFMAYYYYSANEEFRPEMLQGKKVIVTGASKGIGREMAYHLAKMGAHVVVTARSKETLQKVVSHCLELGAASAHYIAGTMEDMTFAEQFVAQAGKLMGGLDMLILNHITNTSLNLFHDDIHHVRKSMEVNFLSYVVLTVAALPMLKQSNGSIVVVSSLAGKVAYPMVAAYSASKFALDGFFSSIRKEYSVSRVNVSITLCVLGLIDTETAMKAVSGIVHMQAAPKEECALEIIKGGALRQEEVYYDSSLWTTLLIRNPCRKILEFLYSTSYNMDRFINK
T2 sequence (P28845 whole entry): as above

**Q.** For `C[C@]12CC[C@H](O)C[C@@H]1CC(=O)[C@@H]1[C@@H]2CC[C@]2(C)C(=O)CC[C@@H]12` [5α-androstane-3β-ol-7,17dione, 5α-androstane-3β-ol-7,17-dione], which IC50 (11β-HSD1 [1]) is on record?
**A.** 500 ± 110 nM

**Q.** What about the IC50 (11β-HSD1 [2]) of the same compound?
**A.** 18 ± 1 µM

**Q.** `C[C@]12CC[C@H](O)CC1=CC(=O)[C@@H]1[C@@H]2CC[C@]2(C)C(=O)CC[C@@H]12` [7-ketodehydroepiandrosterone] was tested. Which IC50 (11β-HSD1 [1]) did it give?
**A.** 820 ± 70 nM

**Q.** And the IC50 (11β-HSD1 [2])?
**A.** 29 ± 5 µM

**Q.** For `CC(=O)[C@H]1CC[C@H]2[C@@H]3C(=O)C=C4C[C@@H](O)CC[C@]4(C)[C@H]3CC[C@]12C` [7-ketopregnenolone], which IC50 (11β-HSD1 [1]) is on record?
**A.** 680 ± 110 nM

**Q.** And the IC50 (11β-HSD1 [2])?
**A.** 5.4 ± 0.5 µM

**Q.** Which results are given for `C[C@]12CC[C@H](O)CC1=C[C@@H](O)[C@@H]1[C@@H]2CC[C@]2(C)C(=O)CC[C@@H]12` [7α-hydroxydehydroepiandrosterone]?
**A.** IC50 (11β-HSD1 [1]): 45000 ± 2000 nM; IC50 (11β-HSD1 [2]): 16 ± 1 µM

**Q.** With `C[C@]12CC[C@H](O)CC1=C[C@H](O)[C@@H]1[C@@H]2CC[C@]2(C)C(=O)CC[C@@H]12` [7β-hydroxydehydroepiandrosterone] as the compound, how does the IC50 (11β-HSD1 [1]) read?
**A.** 7700 ± 800 nM

**Q.** And the IC50 (11β-HSD1 [2])?
**A.** 0.54 ± 0.05 µM

**Q.** For `CC(=O)[C@H]1CC[C@H]2[C@@H]3[C@@H](O)C=C4C[C@@H](O)CC[C@]4(C)[C@H]3CC[C@]12C` [7β-hydroxypregnenolone], which IC50 (11β-HSD1 [1]) is on record?
**A.** 2400 ± 500 nM

**Q.** What about the IC50 (11β-HSD1 [2]) of the same compound?
**A.** 1.34 ± 0.49 µM

**Q.** With `O=C1CC(c2ccccc2)Oc2ccccc21` (stereo not shown) [Flavanone, flavanone] as the compound, how does the “cortisol, percentage of total glucocorticoid (oxidation of cortisol to cortisone)” value (11β-HSD1 [3]; 11β-HSD1 cells, 200 nM radiolabeled cortisol, n = 4) read?
**A.** 61.2%

**Q.** What about the “cortisol, percentage of total glucocorticoid (reduction of cortisone to cortisol)” value (11β-HSD1 [3]; [5]) of the same compound?
**A.** 74.1%

**Q.** And the “cortisone, percentage of total glucocorticoid (reduction of cortisone to cortisol)” value (11β-HSD1 [3]; [5])?
**A.** 25.9%

**Q.** What about the “effect of inhibitor on the steady state ratio of glucocorticoids” value (11β-HSD1 [3]; HEK-293 cells with 11β-HSD1 alone or with H6PDH) of the same compound?
**A.** little or no effect on the steady state ratio of glucocorticoids

**Q.** What about the “cortisol, percentage of total glucocorticoid (oxidation of cortisol to cortisone)” value (11β-HSD1/H6PDH; 200 nM radiolabeled cortisol) of the same compound?
**A.** 90.9%

**Q.** And the “cortisone, percentage of total glucocorticoid (oxidation of cortisol to cortisone)” value (11β-HSD1/H6PDH; 200 nM radiolabeled cortisol)?
**A.** 9.1%

**Q.** And the “cortisol, percentage of total glucocorticoid (reduction of cortisone to cortisol)” value (11β-HSD1/H6PDH; 200 nM radiolabeled cortisone)?
**A.** 91.7%

**Q.** What about the “cortisone, percentage of total glucocorticoid (reduction of cortisone to cortisol)” value (11β-HSD1/H6PDH; 200 nM radiolabeled cortisone) of the same compound?
**A.** 8.3%

**Q.** `C1CCc2nnc(C34CC5CC(CC(C5)C3)C4)n2CC1` [T0504, 5H-1,2,4-triazolo(4,3-a)azepine,6,7,8,9-tetrahydro-3-tricyclo(3·3·1·13·7)dec-1-yl] was tested. Which “effect of inhibitor on 11β-HSD1-dependent metabolism of 7α-hydroxy-DHEA” value (11β-HSD1 [4]; 1 µM 7α-hydroxy-DHEA substrate, 3 h) did it give?
**A.** prevented the formation of 7β-hydroxy-DHEA and 7-keto-DHEA

**Q.** And the “effect of inhibitor on 11β-HSD1-dependent metabolism of 7-ketopregnenolone and 5α-androstane-3β-ol-7,17-dione” value (11β-HSD1 [4]; 1 µM substrate, 3 h or 6 h)?
**A.** almost completely abolished
